From US11382956B2, “Amylin analogues” (Zealand Pharma A/S, priority 2016, dated 2022)

Experiment: Assessment of chemical stability in 40 mM buffers at 40° C. (RP-HPLC)
Assay type: physicochemical
Conditions: 1 mg/mL
Procedure: Samples of each test peptide were dissolved in acetate buffer pH 4 and phosphate buffer pH 6 and 7 (all buffer 40 mM). The final peptide concentration was 1 mg/mL. Samples were placed in glass vials and incubated at 40° C. The samples were analyzed by RP-HPLC on a C8 column with gradient elution using a trifluoroacetic acid/acetonitrile/water eluent system. The area-percentage (area-%) of the main peak was determined by UV spectroscopy at 220 nm at each sampling time point.
The % degradation was calculated by subtracting the […].
The results of the chemical stability assessment after 3 days of incubation time are summarized as % degradation in Table 1 (below).
The results of the chemical stability assessment after 14 days of incubation time are summarized as % degradation in Table 2 (below).

% degradation after 14 days at 40° C. pH4 acetate (acetate buffer pH 4, 14 days): 3.0%
% degradation after 14 days at 40° C. pH6 phosphate (phosphate buffer pH 6, 14 days): 10.1%
% degradation after 14 days at 40° C. pH7 phosphate (phosphate buffer pH 7, 14 days): 33.2%
Substance: N-α-[(S)-4-carboxy-4-(19-carboxynonadecanoylamino)butyryl]-[Arg1,Glu14,His17,Pro37]-pramlintide [NN96, reference compound]
